Assay results: patent US5854015A, “Method of making pure 3R-3'R stereoisomer of zeaxanthin for human ingestion” (priority 1995, dated 1998)

Experiments:
[1] = in vivo
Source text: Birds in the C+ group are fed a standard commercial diet which contains several carotenoids; this diet also contains synthetic alpha-tocopherol (Vitamin E) as an additive.

[2] = per-weight basis; cited from earlier work
[3] = Feeding of F. multivorum cell paste to birds or fish; type: in vivo; settings: cell paste fed directly
Source text: Although this option has not yet been fully evaluated, it is possible that the Flavobacterium multivorum cells themselves, in intact form and possibly even in a viable state, may be suitable for direct ingestion by humans. A substantial number of human foods (including cheese, yogurt, beer, etc.) contain viable or killed-but-intact microbial cells, and there is no known pathogenicity associated with the F. multivorum cells isolated by Applied Food Biotechnology, Inc. They were isolated from a relatively cold artesian waterway, and since they are adapted to living in cold water, they cannot survive or reproduce well at temperatures inside the human body. […] When fed directly in the form of a cell paste to animals such as birds or fish, these cells appear to be well-suited as delivery vehicles for zeaxanthin.

[4] = Pasteurization of cell culture by heating; type: physicochemical; settings: stabilizers added
Experimental: After the stabilizing compounds are added, a bacterial cell culture can be pasteurized by heating to 55° C. for 25 minutes.
After the stabilizing compounds are added, the cell culture is pasteurized by heating to 55° C. for 25 to 50 minutes.

chickens = settings: cited from earlier work
[5] = cited from earlier work
[6] = macular degeneration; cited from earlier work
[7] = of all known carotenoids; cited from earlier work

Work on `CC(C=CC=C(C)C=CC1=C(C)CCCC1(C)C)=CC=CC=C(C)C=CC=C(C)C=CC1C(C)=CC(O)CC1(C)C` (stereo not drawn) [alpha-Cryptoxanthan] yielded a Concentration in retina [1] of 1.4 ng per mg retina.

Work on `Cc1c(O)cc2c(c1C)O[C@](C)(CCC[C@H](C)CCC[C@H](C)CCCC(C)C)CC2` [gamma-Tocopherol] yielded a Concentration in retina [1] of 5.0 ng per mg retina.

For `CC1=C(/C=C/C(C)=C/C=C/C(C)=C/C=C/C=C(C)/C=C/C=C(C)/C=C/C2=C(C)C[C@@H](O)CC2(C)C)C(C)(C)C[C@H](O)C1` [zeaxanthin, 3,3'-dihydroxy-β-β-carotene], the “effectiveness in imparting color relative to lutein” value [2] is listed as “several times more effective”, the “absorption and tissue deposition after feeding” value [3] is listed as “absorbed into the bloodstream and deposited into various tissues at expected and appropriate tissue locations” and the “damage to zeaxanthin on pasteurization” value ([4]; 55° C. for 25 to 50 minutes) is listed as “without damaging the zeaxanthin”. The “damage to zeaxanthin on pasteurization” value ([4]; 55° C. for 25 minutes) was “without damaging the zeaxanthin”, the “coloration of chickens fed cells and their zeaxanthin pigment” value (chickens; cells ATCC 21081 and 21588, U.S. Pat. No. 3,891,504) was “caused suitable coloration” and the “coloring potency relative to lutein” value (chickens; per-weight basis, skin and egg yolks) was 2-3 times. It also gave a Concentration in retina [1] of 4.7 ng per mg retina.

For `CC1=C(/C=C/C(C)=C/C=C/C(C)=C/C=C/C=C(C)/C=C/C=C(C)/C=C/C2=C(C)C(=O)CCC2(C)C)C(C)(C)CCC1=O` [Canthaxanthin], the Concentration in retina [1] is given as 1.7 ng per mg retina, the “crystal formation in retinal tissue” value ([5]; in vivo) is given as “can cause crystal formation which can destroy retinal cells and tissue” and the “deposition in human skin” value ([5]; in vivo) is given as “is deposited in human skin”. For the same compound, the “displacement of lutein in retinal tissue” value ([5]; in vivo) was “can displace lutein” and the retinal toxicity ([5]; ingested) was “shown to cause retinal maculopathy”.

For `Cc1c(C)c2c(c(C)c1O)CCC(C)(CCCC(C)CCCC(C)CCCC(C)C)O2` (stereo not drawn) [alpha-Tocopherol], the “benefits in the retina” value [6] is given as “very limited” and the Concentration in retina [1] is given as 15.6 ng per mg retina.

In the case of `CC1=C(/C=C/C(C)=C/C=C/C(C)=C/C=C/C=C(C)/C=C/C=C(C)/C=C/C2=C(C)CCCC2(C)C)C(C)(C)CCC1` [β-Carotene], the “benefits in the retina” value [6] is listed as “very limited” and the “Detection of β-Carotene in retinas” value [1] is listed as “No β-Carotene was detected”.

In the case of `CC(C)=CCC/C(C)=C/C=C/C(C)=C/C=C/C(C)=C/C=C/C=C(C)/C=C/C=C(C)/C=C/C=C(\C)CCC=C(C)C` [lycopene], the singlet oxygen quenching [7] is given as “best singlet oxygen quencher of all known carotenoids”.

Work on `CC1=C[C@H](O)CC(C)(C)[C@H]1/C=C/C(C)=C/C=C/C(C)=C/C=C/C=C(C)/C=C/C=C(C)/C=C/C1=C(C)C[C@@H](O)CC1(C)C` [Lutein] yielded a Concentration in retina [1] of 1.0 ng per mg retina.

For `CC1=C(/C=C/C(C)=C/C=C/C(C)=C/CO)C(C)(C)CCC1` [Retinol (Vit. A)], the “benefits in the retina” value [6] is given as “very limited” and the Concentration in retina [1] is given as 5.8 ng per mg retina.
